Measured values: patent US20090257987A1, “Method of generating dopamine-secreting cells” (Ramot At Tel Aviv University Ltd., priority 2008, published 2009)

Assays:
human MSCs [1] = assay: Western blot analysis of TH protein expression after differentiation protocols; type: cell-based; conditions: result in words
Protocol: MSC isolation, culture, and characterization: Fresh bone marrow aspirates harvested from the iliac crests of adult donors (age 19-76) were diluted with Hanks' balanced salt solution. Mononuclear cells were isolated by centrifugation in Unisep-Maxi tubes (Novamed, Jerusalem, Israel) by density gradient. The cells were then plated in Dulbecco's Modified Eagle's Medium (DMEM) supplemented with 15% fetal bovine serum (FBS), 2 mM glutamine, 100 μg/ml streptomycin, 100 units/ml penicillin, 12.5 units/ml nystatin (Biological Industries, Beit HaEmek, Israel) in polystyrene plastic 75-cm^2 tissue-culture flasks. After 24 hours, nonadherent cells were removed. The medium was changed every 3-4 days. Adherent cells were cultured to 70%-90% confluence and reseeded at a density of 5,000-10,000 cells/cm^2. The cells were maintained at 37° C. in a humidified 5% CO2 incubator. The MSCs were characterized for their cell-surface phenotype and their mesenchymal differentiation capacity, as previously described (Blondheim er al., 2006, Stem Cells Dev 15:141-164).
(§1) Induction of differentiation: The differentiation protocol was composed of 2 steps. In step 1, cells were transferred to serum-free medium (DMEM) supplemented with 2 mM glutamine, 100 μg/ml streptomycin, 100 units/ml penicillin, 12.5 units/ml nystatin (Biological Industries), N2 supplement (Invitrogen, New Haven, Conn.) and 20 ng/ml fibroblast growth factor 2 and epidermal growth factor (both from R&D Systems, Minneapolis, Minn.) for 48-72 hours. In step 2, the medium was changed to Basic induction medium containing Neurobasal, B27 (both from Invitrogen), in addition to 1 mM dibutyryl cyclic AMP (dbcAMP), 3-isobutyl-1-methyl-xanthine (IBMX), and 200 μM ascorbic acid (all from Sigma, St Louis, Mo.). The following factors were added to the Basic induction medium in different combinations: brain-derived neurotrophic factor (BDNF; 50 ng/ml), glial-derived neurotrophic factor (GDNF;10 ng/ml), neurturin (100 ng/ml), neurotrophin 3 (NT3; 50 ng/ml), and fibroblast growth factor 8 (FGF8; 100 ng/ml (all from Cytolab, Rehovot, Israel); transforming growth factor β3 (TGFβ3; 2 ng/ml), sonic hedgehog (Shh; 500 ng/ml, both from R&D); estrogen (0.1 μM, Sigma); and all-trans-retinoic acid (RA; 0.1 μM, Sigma).
Western blot: Total protein was extracted by suspending the harvested cells in lysis buffer containing 10 mM Tris base (U.S. Biochemical Corporation, Cleveland, Ohio), 5 mM EDTA (Merck, Whitehouse Station, N.J.), 140 mM sodium chloride (NaCl; BioLab, Jerusalem, Israel), 10 mM sodium fluoride (NaF; Sigma), 0.5% NP 40 (U.S. Biochemical Corporation), and 1 μM phenylmethylsulfonyl fluoride (PMSF; Sigma). Following incubation on ice for 30 minutes, the mixture was centrifuged and the supernatants were collected. Protein content was determined by the BCA protein assay kit (Pierce, Rockford, Ill.). Twenty-five micrograms of protein from each sample were subjected to sodium dodecyl-sulfate (SDS)-polyacrylamide gel electrophoresis (PAGE) (12.5% acrylamide), followed by electrophoretic transfer to nitrocellulose membrane (Schleicher & Schuell, Dassel, Germany). Membranes were probed by mouse anti-TH (1:10,000, Sigma) and mouse anti β-actin (1:10,000, Chemicon, Billerica, Mass.) and then by goat anti-mouse horseradish peroxidase conjugated antibody (1:10,000) (Jackson, West Grove, Pa.) and rabbit anti-emerin (1:5,000, Santa Cruz Biotechnology, Santa Cruz, Calif.), followed by goat anti-rabbit horseradish peroxidase conjugated secondary antibody (1:10,000, Sigma). Adequate controls included HeLa cells (ATCC, Manassas, Va.) as negative control and neuroblastoma M17 cells (BE (2)-M17, ATCC) as positive control. Proteins of interest were detected using the enhanced Super Signal® chemiluminescent detection kit (Pierce).

human MSCs [2] = assay: Cell death in culture on supplementation of antioxidants; type: cell-based; conditions: antioxidant supplementation of differentiation medium; data not shown
Protocol: as §1

Molecule	TH protein expression level normalized to actin (human MSCs [1])	cell death in the culture (human MSCs [2])
sonic hedgehog [+SHH]	directly affected the TH protein expression level	–
CC(=O)N[C@@H](CS)C(=O)O [NAC, N-acetylcysteine, reference compound]	did not facilitate upregulation	higher levels of cell death
COc1ccc(O)c(C(C)(C)C)c1 [BHA, butylated hydroxyanisole, reference compound]	did not facilitate upregulation	higher levels of cell death
estrogen [+estrogen, reference compound]	directly affected the TH protein expression level	–
transforming growth factor β3 (protein, UniProt P10600 301-412, looked up, transforming growth factor β3 (2 ng/ml) added to the Basic induction medium) Transforming growth factor …: ALDTNYCFRNLEENCCVRPLYIDFRQDLGWKWVHEPKGYYANFCSGPCPYLRSADTTHSTVLGLYNTLNPEASASPCCVPQDLEPLTILYYVGRTPKVEQLSNMVVKSCKCS	directly affected the TH protein expression level	–
glial-derived neurotrophic factor (protein, UniProt P39905 78-211, looked up, glial-derived neurotrophic factor (10 ng/ml) added to the Basic induction medium) Glial cell line-derived …: SPDKQMAVLPRRERNRQAAAANPENSRGKGRRGQRGKNRGCVLTAIHLNVTDLGLGYETKEELIFRYCSGSCDAAETTYDKILKNLSRNRRLVSDKVGQACCRPIAFDDDLSFLDDNLVYHILRKHSAKRCGCI	directly affected the TH protein expression level	–
